This note sets out measurements from ChEMBL document CHEMBL4354830, “Discovery of Benzo[cd]indol-2(1H)-ones and Pyrrolo[4,3,2-de]quinolin-2(1H)-ones as Bromodomain and Extra-Terminal Domain (BET) Inhibitors with Selectivity for the First Bromodomain with Potential High Efficiency against Acute Gouty Arthritis” (J Med Chem, 2019).

Calls of active or inactive are those of the source. The calls are words filed in the database; no cut-off is given here.

Assay [1] has as its system Rattus norvegicus. Nature of the assay: In vivo inhibition of MSU-induced NF-kappaB P65 phosphorylation in synovial tissue of Sprague-Dawley rat model of acute gout arthritis at 1 mg/kg, ia administered 1 hr before MSU challenge and measured upto 24 hrs by Western blot analysis. It is filed as functional, organism-based. For orientation: A western blot detects proteins with antibodies after separation by electrophoresis.

For assay [2], the target named is T1, Peregrin (Homo sapiens, UniProt P55201).
T1 sequence (P55201 whole entry): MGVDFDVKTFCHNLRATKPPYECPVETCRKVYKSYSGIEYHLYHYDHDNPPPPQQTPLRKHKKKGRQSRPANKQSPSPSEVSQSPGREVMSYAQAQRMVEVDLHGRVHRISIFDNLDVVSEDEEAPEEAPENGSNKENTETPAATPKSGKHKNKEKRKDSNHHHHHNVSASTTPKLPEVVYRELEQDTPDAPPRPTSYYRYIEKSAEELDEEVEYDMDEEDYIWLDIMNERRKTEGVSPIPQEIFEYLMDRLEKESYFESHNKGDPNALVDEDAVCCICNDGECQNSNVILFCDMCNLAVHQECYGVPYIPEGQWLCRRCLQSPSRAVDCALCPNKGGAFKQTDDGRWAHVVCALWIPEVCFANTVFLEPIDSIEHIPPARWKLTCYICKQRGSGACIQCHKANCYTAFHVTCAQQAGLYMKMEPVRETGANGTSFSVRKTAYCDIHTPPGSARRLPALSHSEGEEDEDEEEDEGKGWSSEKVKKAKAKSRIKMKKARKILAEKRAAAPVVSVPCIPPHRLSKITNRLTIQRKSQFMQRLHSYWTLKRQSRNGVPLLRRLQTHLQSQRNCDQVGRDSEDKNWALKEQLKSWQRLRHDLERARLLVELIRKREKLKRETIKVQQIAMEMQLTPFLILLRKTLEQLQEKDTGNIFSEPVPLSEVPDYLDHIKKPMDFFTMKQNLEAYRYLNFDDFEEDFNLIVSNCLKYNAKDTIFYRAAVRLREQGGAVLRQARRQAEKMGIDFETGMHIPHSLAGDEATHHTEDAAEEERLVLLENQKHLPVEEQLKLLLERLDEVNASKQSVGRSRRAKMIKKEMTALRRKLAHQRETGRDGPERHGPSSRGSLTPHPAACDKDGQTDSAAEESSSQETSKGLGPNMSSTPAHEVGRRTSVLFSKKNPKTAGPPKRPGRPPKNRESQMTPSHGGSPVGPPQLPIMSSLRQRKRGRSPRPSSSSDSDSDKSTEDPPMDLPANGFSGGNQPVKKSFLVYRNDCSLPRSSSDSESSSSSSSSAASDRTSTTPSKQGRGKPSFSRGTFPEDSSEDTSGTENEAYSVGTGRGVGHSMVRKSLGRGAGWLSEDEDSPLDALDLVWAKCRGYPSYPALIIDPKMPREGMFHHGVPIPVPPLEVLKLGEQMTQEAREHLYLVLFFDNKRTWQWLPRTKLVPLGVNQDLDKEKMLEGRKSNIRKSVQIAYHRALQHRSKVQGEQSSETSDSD
Nature of the assay: Displacement of tetra-acetylated histone H4 peptide (1-21) from BRPF1b (unknown origin) incubated for 30 mins followed by further incubation with tetra-acetylated histone H4 peptide (1-21) for 30 mins by Alphascreen assay. Background: Alpha assays give light when donor and acceptor beads are brought close together.

Assay [3] deals with Bromodomain-containing protein 3 (Homo sapiens, UniProt Q15059). Nature of the assay: Displacement of tetra-acetylated histone H4 peptide (1-21) from BRD3 BD2 (unknown origin) incubated for 30 mins followed by further incubation with tetra-acetylated histone H4 peptide (1-21) for 30 mins by Alphascreen assay.
Assay [4] addresses T2, Bromodomain-containing protein 4 (Homo sapiens, UniProt O60885). The experiment in a line: Inhibition of BRD4 BD1 in human THP1 cells assessed as inhibition of MSU-induced co-localization of NLRP3 and ASC at 1 uM incubated for 1 hr followed by MSU treatment and measured after 12 hrs by immunofluorescence based confocal microscopy analysis. Format: cell-based.
For assay [5], the species on record is Homo sapiens. Nature of the assay: Selectivity index, ratio of IC50 for BRD2 BD2 (unknown origin) to IC50 for recombinant human N-terminal His-tagged BRD4 BD1 (44 to 170 residues) expressed in Escherichia coli by AlphaScreen assay.
Assay [6] concerns Rattus norvegicus. Nature of the assay: In vivo inhibition of MSU-induced ASC activation in synovial tissue of Sprague-Dawley rat model of acute gout arthritis at 1 mg/kg, ia administered 1 hr before MSU challenge and measured upto 24 hrs by immunofluorescence based confocal microscopy analysis. It is filed as functional, organism-based.
Assay [7] concerns Rattus norvegicus. The experiment in a line: In vivo inhibition of MSU-induced pyroptosis in Sprague-Dawley rat model of acute gout arthritis assessed as caspase+/PI- macrophage cells in synovial tissue at 1 mg/kg, ia administered 1 hr before MSU challenge and measured upto 24 hrs by PI staining based flow cytometric analysis (reference value: 21.9 %). It is filed as functional. Also on record: scale not given: the % may be the effect or the level left.

In assay [8] the target is T2, Bromodomain-containing protein 4. Nature of the assay: Inhibition of BRD4 BD1 in human THP1 cells assessed as inhibition of MSU-induced pyroptosis by measuring caspase-/PI- cells at 1 uM incubated for 1 hr followed by MSU treatment and measured after 12 hrs by PI/caspase 1 double staining based flow cytometric analysis (reference value: 76.2 %). Format: cell-based. The arrangement: scale not given: the % may be the effect or the level left. (In general: A flow cytometer gives signals particle by particle.)

For assay [9], the species on record is Homo sapiens. The experiment in a line: Selectivity index, ratio of IC50 for BRD2 BD2 (unknown origin) to IC50 for BRD2 BD1 (unknown origin) by AlphaScreen assay.
For assay [10], the species on record is Homo sapiens. The experiment in a line: Selectivity index, ratio of IC50 for BRDT BD1 (unknown origin) to IC50 for recombinant human N-terminal His-tagged BRD4 BD1 (44 to 170 residues) expressed in Escherichia coli by AlphaScreen assay.
For assay [11], the system named is Rattus norvegicus. The experiment in a line: In vivo inhibition of MSU-induced pyroptosis in Sprague-Dawley rat model of acute gout arthritis assessed as caspase-/PI+ macrophage cells in synovial tissue at 1 mg/kg, ia administered 1 hr before MSU challenge and measured upto 24 hrs by PI staining based flow cytometric analysis (reference value: 8.71 %). It is filed as functional. Also on record: scale not given: the % may be the effect or the level left.

The species named for assay [12] is Homo sapiens. The experiment in a line: Selectivity index, ratio of IC50 for BRD3 BD2 (unknown origin) […] (unknown origin) by AlphaScreen assay.
For assay [13], the system named is Rattus norvegicus. Nature of the assay: In vivo inhibition of MSU-induced pyroptosis in Sprague-Dawley rat model of acute gout arthritis assessed as caspase+/PI+ macrophage cells in synovial tissue at 1 mg/kg, ia administered 1 hr before MSU challenge and measured upto 24 hrs by PI staining based flow cytometric analysis (reference value: 5.79 %). Also on record: scale not given: the % may be the effect or the level left. Format: functional.

Assay [14] concerns the target Bromodomain-containing protein 2 (Homo sapiens, UniProt P25440). Nature of the assay: Displacement of tetra-acetylated histone H4 peptide (1-21) from BRD2 BD1 (unknown origin) incubated for 30 mins followed by further incubation with tetra-acetylated histone H4 peptide (1-21) for 30 mins by Alphascreen assay.
In assay [15] the test system is Rattus norvegicus. Nature of the assay: In vivo inhibition of MSU-induced NLRP3 and ASC co-localization in synovial tissue of Sprague-Dawley rat model of acute gout arthritis at 1 mg/kg, ia administered 1 hr before MSU challenge and measured upto 24 hrs by immunofluorescence based confocal microscopy analysis. It is filed as functional, organism-based.
Assay [16] addresses T2, Bromodomain-containing protein 4. The experiment in a line: Inhibition of BRD4 BD1 in human THP1 cells assessed as inhibition of MSU-induced NLRP3 inflammasome at 1 uM incubated for 1 hr followed by MSU treatment and measured after 12 hrs by Western blot analysis. It is filed as cell-based.
Assay [17] is filed under the species Homo sapiens. Nature of the assay: Selectivity index, ratio of IC50 BRD2 BD1 (unknown origin) to IC50 for recombinant human N-terminal His-tagged BRD4 BD1 (44 to 170 residues) expressed in Escherichia coli by AlphaScreen assay.

Bromodomain-containing protein 2, sequence (P25440 whole entry): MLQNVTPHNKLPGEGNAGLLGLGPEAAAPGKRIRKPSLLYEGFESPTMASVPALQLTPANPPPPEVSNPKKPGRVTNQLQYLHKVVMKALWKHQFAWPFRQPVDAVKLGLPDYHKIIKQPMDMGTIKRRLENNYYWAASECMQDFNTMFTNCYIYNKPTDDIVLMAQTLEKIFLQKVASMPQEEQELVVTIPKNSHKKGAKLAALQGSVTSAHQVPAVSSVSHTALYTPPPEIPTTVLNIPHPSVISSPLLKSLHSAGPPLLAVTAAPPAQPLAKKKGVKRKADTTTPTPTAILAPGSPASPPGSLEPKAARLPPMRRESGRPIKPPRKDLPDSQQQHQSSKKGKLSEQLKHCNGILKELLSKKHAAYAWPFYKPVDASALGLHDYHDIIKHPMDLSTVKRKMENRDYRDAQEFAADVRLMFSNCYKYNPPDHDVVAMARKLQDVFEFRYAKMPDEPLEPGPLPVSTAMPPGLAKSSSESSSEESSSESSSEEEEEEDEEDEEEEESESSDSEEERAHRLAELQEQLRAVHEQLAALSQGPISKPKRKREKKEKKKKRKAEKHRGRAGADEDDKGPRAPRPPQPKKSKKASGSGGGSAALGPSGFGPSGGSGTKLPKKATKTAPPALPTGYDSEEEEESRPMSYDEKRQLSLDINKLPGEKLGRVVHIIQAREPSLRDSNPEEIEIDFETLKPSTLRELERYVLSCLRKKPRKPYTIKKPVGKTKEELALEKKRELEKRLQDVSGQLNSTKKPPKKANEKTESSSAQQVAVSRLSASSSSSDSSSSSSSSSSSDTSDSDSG
Bromodomain-containing protein 3, sequence (Q15059 whole entry): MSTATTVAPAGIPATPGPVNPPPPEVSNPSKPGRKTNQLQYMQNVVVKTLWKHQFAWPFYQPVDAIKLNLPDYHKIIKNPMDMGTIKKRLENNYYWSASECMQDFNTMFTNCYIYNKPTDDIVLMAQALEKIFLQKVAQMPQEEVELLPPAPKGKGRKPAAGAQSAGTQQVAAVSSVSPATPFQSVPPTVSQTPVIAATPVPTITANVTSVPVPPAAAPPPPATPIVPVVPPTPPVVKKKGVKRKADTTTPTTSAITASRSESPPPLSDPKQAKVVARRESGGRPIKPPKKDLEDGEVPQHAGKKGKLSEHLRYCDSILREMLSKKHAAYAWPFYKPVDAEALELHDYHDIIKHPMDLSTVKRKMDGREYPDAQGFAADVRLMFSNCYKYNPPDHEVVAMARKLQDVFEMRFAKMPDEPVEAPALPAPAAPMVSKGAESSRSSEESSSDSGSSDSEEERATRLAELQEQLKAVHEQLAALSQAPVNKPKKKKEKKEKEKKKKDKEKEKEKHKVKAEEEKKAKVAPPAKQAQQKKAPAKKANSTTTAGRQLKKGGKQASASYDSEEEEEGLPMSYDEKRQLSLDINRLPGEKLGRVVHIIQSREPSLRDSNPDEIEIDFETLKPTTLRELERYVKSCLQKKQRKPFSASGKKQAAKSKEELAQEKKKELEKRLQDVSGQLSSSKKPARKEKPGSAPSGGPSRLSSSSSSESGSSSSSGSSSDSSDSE

Take `COc1ccccc1S(=O)(=O)Nc1ccc2c3c(cc(-n4cnc(C)c4)nc13)C(=O)N2C`: the inhibition entry in assay [1], in assay [4], in assay [6], in [15] and in [16] was “Active” throughout. Besides, the IC50 came to 0.568 µM in assay [2], 49.8 µM in [3] and 8.95 µM in assay [14]. Also, the Ratio IC50 worked out at 244 in assay [5]; 2.4 in assay [9]; 4.1 in assay [10]; 202 in assay [12]; 102 in assay [17]. For the same compound, the Activity in [7] is 0.43%; in assay [8], 86.6%; in assay [11], 15.4%; in [13] it was 1.03%.

The IC50 is the point on the concentration scale where inhibition reaches its midpoint.
